Source: BigSolDB 2.1

Cc1cc(C(=O)O)ccc1[N+](=O)[O-]
Conditions	solubility (mole fraction)
in 1,4-dioxane, 283.15 K	0.0407
in 1,4-dioxane, 285.65 K	0.0428
in 1,4-dioxane, 288.15 K	0.0448
in 1,4-dioxane, 290.65 K	0.0469
in 1,4-dioxane, 293.15 K	0.0493
in 1,4-dioxane, 295.65 K	0.0519
in 1,4-dioxane, 298.15 K	0.0545
in 1,4-dioxane, 300.65 K	0.0571
in 1,4-dioxane, 303.15 K	0.06
in 1,4-dioxane, 305.65 K	0.0628
in 1,4-dioxane, 308.15 K	0.0658
in 1,4-dioxane, 310.65 K	0.0688
in 1,4-dioxane, 313.15 K	0.0718
in 1,4-dioxane, 315.65 K	0.0754
in 1,4-dioxane, 318.15 K	0.0802
in DMF, 283.15 K	0.0677
in DMF, 285.65 K	0.0709
in DMF, 288.15 K	0.0754
in DMF, 290.65 K	0.0795
in DMF, 293.15 K	0.0845
in DMF, 295.65 K	0.0908
in DMF, 298.15 K	0.0975
in DMF, 300.65 K	0.104
in DMF, 303.15 K	0.111
in DMF, 305.65 K	0.118
in DMF, 308.15 K	0.126
in DMF, 310.65 K	0.135
in DMF, 313.15 K	0.142
in DMF, 315.65 K	0.152
in DMF, 318.15 K	0.162
in NMP, 283.15 K	0.0856
in NMP, 285.65 K	0.0872
in NMP, 288.15 K	0.09
in NMP, 290.65 K	0.0933
in NMP, 293.15 K	0.0965
in NMP, 295.65 K	0.1
in NMP, 298.15 K	0.105
in NMP, 300.65 K	0.109
in NMP, 303.15 K	0.113
in NMP, 305.65 K	0.118
in NMP, 308.15 K	0.123
in NMP, 310.65 K	0.128
in NMP, 313.15 K	0.133
in NMP, 315.65 K	0.138
in NMP, 318.15 K	0.145
in acetone, 283.15 K	0.0204
in acetone, 285.65 K	0.0212
in acetone, 288.15 K	0.022
in acetone, 290.65 K	0.0228
in acetone, 293.15 K	0.0238
in acetone, 295.65 K	0.0247
in acetone, 298.15 K	0.026
in acetone, 300.65 K	0.0273
in acetone, 303.15 K	0.0285
in acetone, 305.65 K	0.0299
in acetone, 308.15 K	0.0311
in acetone, 310.65 K	0.0325
in acetone, 313.15 K	0.0338
in acetone, 315.65 K	0.0353
in acetone, 318.15 K	0.0372
in acetonitrile, 283.15 K	0.00255
in acetonitrile, 285.65 K	0.00276
in acetonitrile, 288.15 K	0.00302
in acetonitrile, 290.65 K	0.00328
in acetonitrile, 293.15 K	0.00355
in acetonitrile, 295.65 K	0.00382
in acetonitrile, 298.15 K	0.00412
in acetonitrile, 300.65 K	0.00438
in acetonitrile, 303.15 K	0.00469
in acetonitrile, 305.65 K	0.00498
in acetonitrile, 308.15 K	0.00529
in acetonitrile, 310.65 K	0.00564
in acetonitrile, 313.15 K	0.00598
in acetonitrile, 315.65 K	0.00638
in acetonitrile, 318.15 K	0.00688
in ethanol, 283.15 K	0.00751
in ethanol, 285.65 K	0.0078
in ethanol, 288.15 K	0.00818
in ethanol, 290.65 K	0.00866
in ethanol, 293.15 K	0.00915
in ethanol, 295.65 K	0.00964
in ethanol, 298.15 K	0.0102
in ethanol, 300.65 K	0.0108
in ethanol, 303.15 K	0.0113
in ethanol, 305.65 K	0.0119
in ethanol, 308.15 K	0.0125
in ethanol, 310.65 K	0.0132
in ethanol, 313.15 K	0.0138
in ethanol, 315.65 K	0.0146
in ethanol, 318.15 K	0.0155
in ethyl acetate, 283.15 K	0.0106
in ethyl acetate, 285.65 K	0.0111
in ethyl acetate, 288.15 K	0.0116
in ethyl acetate, 290.65 K	0.0123
in ethyl acetate, 293.15 K	0.0127
in ethyl acetate, 295.65 K	0.0134
in ethyl acetate, 298.15 K	0.014
in ethyl acetate, 300.65 K	0.0146
in ethyl acetate, 303.15 K	0.0153
in ethyl acetate, 305.65 K	0.0159
in ethyl acetate, 308.15 K	0.0167
in ethyl acetate, 310.65 K	0.0175
in ethyl acetate, 313.15 K	0.0185
in ethyl acetate, 315.65 K	0.0193
in ethyl acetate, 318.15 K	0.0205
in isopropanol, 283.15 K	0.00877
in isopropanol, 285.65 K	0.00915
in isopropanol, 288.15 K	0.00966
in isopropanol, 290.65 K	0.0102
in isopropanol, 293.15 K	0.0108
in isopropanol, 295.65 K	0.0115
in isopropanol, 298.15 K	0.0122
in isopropanol, 300.65 K	0.0129
in isopropanol, 303.15 K	0.0136
in isopropanol, 305.65 K	0.0143
in isopropanol, 308.15 K	0.0151
in isopropanol, 310.65 K	0.016
in isopropanol, 313.15 K	0.0169
in isopropanol, 315.65 K	0.0181
in isopropanol, 318.15 K	0.0192
in methanol, 283.15 K	0.00606
in methanol, 285.65 K	0.00664
in methanol, 288.15 K	0.00734
in methanol, 290.65 K	0.00809
in methanol, 293.15 K	0.00879
in methanol, 295.65 K	0.00956
in methanol, 298.15 K	0.0104
in methanol, 300.65 K	0.0111
in methanol, 303.15 K	0.012
in methanol, 305.65 K	0.0129
in methanol, 308.15 K	0.0137
in methanol, 310.65 K	0.0147
in methanol, 313.15 K	0.0158
in methanol, 315.65 K	0.0169
in methanol, 318.15 K	0.0184
in n-butanol, 283.15 K	0.00676
in n-butanol, 285.65 K	0.00725
in n-butanol, 288.15 K	0.00789
in n-butanol, 290.65 K	0.00844
in n-butanol, 293.15 K	0.00913
in n-butanol, 295.65 K	0.00994
in n-butanol, 298.15 K	0.0108
in n-butanol, 300.65 K	0.0116
in n-butanol, 303.15 K	0.0125
in n-butanol, 305.65 K	0.0134
in n-butanol, 308.15 K	0.0144
in n-butanol, 310.65 K	0.0153
in n-butanol, 313.15 K	0.0163
in n-butanol, 315.65 K	0.0174
in n-butanol, 318.15 K	0.0188
in n-propanol, 283.15 K	0.00726
in n-propanol, 285.65 K	0.00765
in n-propanol, 288.15 K	0.00815
in n-propanol, 290.65 K	0.00866
in n-propanol, 293.15 K	0.00914
in n-propanol, 295.65 K	0.00966
in n-propanol, 298.15 K	0.0103
in n-propanol, 300.65 K	0.0109
in n-propanol, 303.15 K	0.0115
in n-propanol, 305.65 K	0.0121
in n-propanol, 308.15 K	0.0129
in n-propanol, 310.65 K	0.0137
in n-propanol, 313.15 K	0.0145
in n-propanol, 315.65 K	0.0155
in n-propanol, 318.15 K	0.0164
in toluene, 283.15 K	0.0165
in toluene, 285.65 K	0.0174
in toluene, 288.15 K	0.0184
in toluene, 290.65 K	0.0191
in toluene, 293.15 K	0.0202
in toluene, 295.65 K	0.0211
in toluene, 298.15 K	0.0221
in toluene, 300.65 K	0.0231
in toluene, 303.15 K	0.0243
in toluene, 305.65 K	0.0253
in toluene, 308.15 K	0.0265
in toluene, 310.65 K	0.0279
in toluene, 313.15 K	0.0295
in toluene, 315.65 K	0.0314
in toluene, 318.15 K	0.0333
